Assay results: PMC7608815 (Science Advances, 2020)

Key:
SlMT3 = biological target: T1, SlMT3 (Solanum lycopersicum, UniProt D2Y3T9); experiment: yeast feeding assay, qToF-MS of methylation product; assay type: cell-based; conditions: 100 uM fed substrate plus endogenous yeast 3-HAA, 72 h, 30 C
T1 sequence (D2Y3T9 1-361): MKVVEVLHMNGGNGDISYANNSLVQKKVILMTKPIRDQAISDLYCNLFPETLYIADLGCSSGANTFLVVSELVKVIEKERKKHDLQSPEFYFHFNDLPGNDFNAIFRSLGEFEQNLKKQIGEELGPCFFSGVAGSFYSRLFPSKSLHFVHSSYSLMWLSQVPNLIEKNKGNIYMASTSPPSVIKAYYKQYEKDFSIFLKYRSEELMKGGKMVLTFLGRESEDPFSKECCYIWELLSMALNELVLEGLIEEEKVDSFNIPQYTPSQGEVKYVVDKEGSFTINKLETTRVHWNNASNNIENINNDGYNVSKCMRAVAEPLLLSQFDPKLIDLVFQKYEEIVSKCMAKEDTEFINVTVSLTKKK

AtCHS = biological target: T2, AtCHS (Arabidopsis thaliana, UniProt P13114); experiment: LC-MS/MS product detection, end point […] h; assay type: biochemical; conditions: 200 uM p-coumaroyl-CoA, 30 C
T2 sequence (P13114 2-395): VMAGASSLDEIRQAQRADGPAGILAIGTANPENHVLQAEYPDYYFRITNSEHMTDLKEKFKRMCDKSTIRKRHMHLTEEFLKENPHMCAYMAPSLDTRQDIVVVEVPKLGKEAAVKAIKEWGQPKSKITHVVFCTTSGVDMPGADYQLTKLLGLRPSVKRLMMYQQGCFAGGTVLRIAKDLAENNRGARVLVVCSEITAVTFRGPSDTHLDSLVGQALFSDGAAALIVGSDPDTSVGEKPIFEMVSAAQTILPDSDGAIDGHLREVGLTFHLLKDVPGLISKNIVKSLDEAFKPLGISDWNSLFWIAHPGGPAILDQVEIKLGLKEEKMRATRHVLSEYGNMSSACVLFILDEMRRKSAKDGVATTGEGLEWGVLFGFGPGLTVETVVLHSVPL

SMILES: Nc1c(O)cccc1C(=O)O [3-HAA]
- yeast feeding assay, qToF-MS of methylation product (SlMT3): SlMT3 exhibited detectable activity only toward 3-HAA

SMILES: COC(=O)c1cccc(O)c1N [compound 1, Methyl 2-amino-3-hydroxybenzoate]
- LC-MS/MS product detection, end point 4 h (AtCHS; 200 uM 3-HAA methyl ester, amide synthesis): highest production of amide with 3-HAA methyl ester

SMILES: CC(C)(COP(=O)(O)OP(=O)(O)OC[C@H]1O[C@@H](n2cnc3c(N)ncnc32)[C@H](O)[C@@H]1OP(=O)(O)O)[C@@H](O)C(=O)NCCC(=O)NCCSC(=O)CC(=O)O [malonyl-CoA]
- LC-MS/MS product detection, end point 4 h (AtCHS; 200 uM malonyl-CoA, naringenin chalcone synthesis): its activities on malonyl-CoA and 3-HAA methyl ester were analyzed under the same assay conditions
